One assay concerns the target GSK3β (H350L) (Homo sapiens (Human), UniProt P49841). As to conditions: read-out: GSK3β Ki.
Assay [1] deals with CDK2/Cyclin E1 full length (Homo sapiens (Human), UniProt P24941). The assay can be described thus: CDK2/Cyclin E1 full length mobility shift assay. The class given is biochemical.

Each structure is given as a SMILES string.

Consider 30 compounds from patent US11014911B2, “CDK2 inhibitors” (Pfizer Inc., priority 2019, dated 2021).

What is called Ki is a dissociation constant, usually derived from enzyme kinetics or from competition with a known ligand.

GSK3β (H350L), sequence (P49841 whole entry, stated change not applied): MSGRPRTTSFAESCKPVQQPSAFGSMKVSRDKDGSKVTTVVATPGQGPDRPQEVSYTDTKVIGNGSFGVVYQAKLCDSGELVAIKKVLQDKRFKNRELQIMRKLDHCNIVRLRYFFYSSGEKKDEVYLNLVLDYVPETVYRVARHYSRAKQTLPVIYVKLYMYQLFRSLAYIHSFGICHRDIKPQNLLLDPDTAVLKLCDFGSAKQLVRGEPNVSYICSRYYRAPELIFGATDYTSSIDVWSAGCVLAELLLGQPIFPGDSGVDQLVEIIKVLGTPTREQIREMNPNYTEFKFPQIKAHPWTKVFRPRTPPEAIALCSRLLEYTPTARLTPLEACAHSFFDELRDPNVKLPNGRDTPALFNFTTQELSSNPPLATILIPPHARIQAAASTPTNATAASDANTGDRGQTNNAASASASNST
Experimental for GSK3β (H350L): The assay was initiated with the addition of ATP, following 15 minutes pre-incubation of enzyme and inhibitor at room temperature in the reaction mixture. The reaction was stopped after 30 minutes at room temperature by the addition of 50 μL of 80 mM EDTA.

Regarding `CCCNC(=O)O[C@H]1CC[C@@H](c2cc(NC(=O)c3ccnn3C)n[nH]2)C1` [Example 163, (1S,3R)-3-(3-{[(1-methyl-1H-pyrazol-5-yl)carbonyl]amino}-1H-pyrazol-5-yl)cyclopentyl propylcarbamate], the inhibition constant (Ki) at GSK3β (H350L) came to 16.6 nM; in assay [1] it was 0.32 nM.

`CCCNC(=O)O[C@@H]1CC[C@H](c2cc(NC(=O)c3ccnn3C)n[nH]2)C1` [Example 164, (1R,3S)-3-(3-{[(1-methyl-1H-pyrazol-5-yl)carbonyl]amino}-1H-pyrazol-5-yl)cyclopentyl propylcarbamate]: the Ki came to 44.7 nM on GSK3β (H350L) and 0.72 nM in assay [1].

`CCCNC(=O)O[C@H]1CC[C@@H](c2cc(NC(=O)Cc3cnco3)n[nH]2)C1` [Example 166, (1S,3R)-3-{3-[(1,3-oxazol-5-ylacetyl)amino]-1H-pyrazol-5-yl}cyclopentyl propylcarbamate]: the Ki on GSK3β (H350L) stood at 24.3 nM; in assay [1], 0.4 nM.

As for `CCCNC(=O)O[C@@H]1CC[C@H](c2cc(NC(=O)Cc3cnco3)n[nH]2)C1` [Example 167, (1R,3S)-3-{3-[(1,3-oxazol-5-ylacetyl)amino]-1H-pyrazol-5-yl}cyclopentyl propylcarbamate], the inhibitory constant (Ki) on GSK3β (H350L) was found to be 33.9 nM; in assay [1], 1.4 nM.

For the compound `CCCNC(=O)O[C@H]1CC[C@@H](c2cc(NC(=O)Cc3ccno3)n[nH]2)C1` [Example 168, (1S,3R)-3-{3-[(1,2-oxazol-5-ylacetyl)amino]-1H-pyrazol-5-yl}cyclopentyl propylcarbamate], the inhibition constant (Ki) on GSK3β (H350L) came to 25.8 nM; in assay [1] it was 0.36 nM.

Take `CCCNC(=O)O[C@@H]1CC[C@H](c2cc(NC(=O)Cc3ccno3)n[nH]2)C1` [Example 169, (1R,3S)-3-{3-[(1,2-oxazol-5-ylacetyl)amino]-1H-pyrazol-5-yl}cyclopentyl propylcarbamate]: the Ki on GSK3β (H350L) was 29.6 nM; in assay [1] it was 1.63 nM.

Turning to `CCCNC(=O)O[C@H]1CC[C@@H](c2cc(NC(=O)c3ccnc(C)c3)n[nH]2)C1` [Example 170, (1S,3R)-3-(3-{[(2-methylpyridin-4-yl)carbonyl]amino}-1H-pyrazol-5-yl)cyclopentyl propylcarbamate], the results for the Ki (at GSK3β (H350L); in assay [1]) were more than 191 nM and 1.37 nM, respectively.

Take `CCCNC(=O)O[C@H]1CC[C@@H](c2cc(NC(=O)Cc3ccccn3)n[nH]2)C1` [Example 171, (1S,3R)-3-{3-[(pyridin-2-ylacetyl)amino]-1H-pyrazol-5-yl}cyclopentyl propylcarbamate]: the Ki on GSK3β (H350L) came out at 18.2 nM; in assay [1], 1.73 nM.

For the compound `CCCNC(=O)O[C@H]1CC[C@@H](c2cc(NC(=O)c3cc(C)nn3C)n[nH]2)C1` [Example 172, (1S,3R)-3-(3-{[(1,3-dimethyl-1H-pyrazol-5-yl)carbonyl]amino}-1H-pyrazol-5-yl)cyclopentyl propylcarbamate], the Ki amounted to 102 nM on GSK3β (H350L) and 1.2 nM in assay [1].

`CCCNC(=O)O[C@@H]1CC[C@H](c2cc(NC(=O)c3cc(C)nn3C)n[nH]2)C1` [Example 173, (1R,3S)-3-(3-{[(1,3-dimethyl-1H-pyrazol-5-yl)carbonyl]amino}-1H-pyrazol-5-yl)cyclopentyl propylcarbamate]: the Ki is more than 191 nM on GSK3β (H350L) and 2.29 nM in assay [1].

Take `CCCNC(=O)O[C@H]1CC[C@@H](c2cc(NC(=O)c3cn(C)nc3C)n[nH]2)C1` [Example 174, (1S,3R)-3-(3-{[(1,3-dimethyl-1H-pyrazol-4-yl)carbonyl]amino}-1H-pyrazol-5-yl)cyclopentyl propylcarbamate]: the Ki is more than 95.3 nM at GSK3β (H350L) and 3 nM in assay [1].

`CCCNC(=O)O[C@H]1CC[C@@H](c2cc(NC(=O)Cc3cnc(C)o3)n[nH]2)C1` [Example 175, (1S,3R)-3-(3-{[(2-methyl-1,3-oxazol-5-yl)acetyl]amino}-1H-pyrazol-5-yl)cyclopentyl propylcarbamate]: the figures for the Ki (at GSK3β (H350L); in assay [1]) were 39.7 nM and 0.82 nM, respectively.

In the case of `CCCNC(=O)O[C@@H]1CC[C@H](c2cc(NC(=O)Cc3cnc(C)o3)n[nH]2)C1` [Example 176, (1R,3S)-3-(3-{[(2-methyl-1,3-oxazol-5-yl)acetyl]amino}-1H-pyrazol-5-yl)cyclopentyl propylcarbamate], the Ki is 46.1 nM at GSK3β (H350L) and 2.5 nM in assay [1].

Take `CCCNC(=O)O[C@H]1CC[C@@H](c2cc(NC(=O)Cc3cc(C)no3)n[nH]2)C1` [Example 177, (1S,3R)-3-(3-{[(3-methyl-1,2-oxazol-5-yl)acetyl]amino}-1H-pyrazol-5-yl)cyclopentyl propylcarbamate]: the results for the Ki (on GSK3β (H350L); in assay [1]) were 19 nM and 0.43 nM, respectively.

In the case of `CCCNC(=O)O[C@@H]1CC[C@H](c2cc(NC(=O)Cc3cc(C)no3)n[nH]2)C1` [Example 178, (1R,3S)-3-(3-{[(3-methyl-1,2-oxazol-5-yl)acetyl]amino}-1H-pyrazol-5-yl)cyclopentyl propylcarbamate], the values for the inhibition constant Ki (at GSK3β (H350L); in assay [1]) were 21.4 nM and 1.1 nM, respectively.

For the compound `CCCNC(=O)O[C@@H]1CC[C@H](c2cc(NC(=O)Cc3cncs3)n[nH]2)C1` [Example 179, (1R,3S)-3-{3-[(1,3-thiazol-5-ylacetyl)amino]-1H-pyrazol-5-yl}cyclopentyl propylcarbamate], the Ki at GSK3β (H350L) is 13.5 nM; in assay [1], 0.54 nM.

Regarding `CCCNC(=O)O[C@H]1CC[C@@H](c2cc(NC(=O)c3ccc(C)nc3C)n[nH]2)C1` [Example 180, (1S,3R)-3-(3-{[(2,6-dimethylpyridin-3-yl)carbonyl]amino}-1H-pyrazol-5-yl)cyclopentyl propylcarbamate], the values for the Ki (at GSK3β (H350L); in assay [1]) were more than 95.3 nM and 0.81 nM, respectively.

With `CCCNC(=O)O[C@@H]1CC[C@H](c2cc(NC(=O)c3ccc(C)nc3C)n[nH]2)C1` [Example 181, (1R,3S)-3-(3-{[(2,6-dimethylpyridin-3-yl)carbonyl]amino}-1H-pyrazol-5-yl)cyclopentyl propylcarbamate], the Ki on GSK3β (H350L) is more than 191 nM; in assay [1], 3.91 nM.

Consider `CCCNC(=O)O[C@H]1CC[C@@H](c2cc(NC(=O)c3ccc(OC)nc3)n[nH]2)C1` [Example 182, (1S,3R)-3-(3-{[(6-methoxypyridin-3-yl)carbonyl]amino}-1H-pyrazol-5-yl)cyclopentyl propylcarbamate], for which the Ki at GSK3β (H350L) is 90.6 nM; in assay [1] it was 0.82 nM.

Turning to `CCCNC(=O)O[C@@H]1CC[C@H](c2cc(NC(=O)c3ccc(OC)nc3)n[nH]2)C1` [Example 183, (1R,3S)-3-(3-{[(6-methoxypyridin-3-yl)carbonyl]amino}-1H-pyrazol-5-yl)cyclopentyl propylcarbamate], the Ki on GSK3β (H350L) was more than 95.3 nM; in assay [1] it was 3.68 nM.

In the case of `CCCNC(=O)O[C@H]1CC[C@@H](c2cc(NC(=O)c3ccnc(OC)c3)n[nH]2)C1` [Example 184, (1S,3R)-3-(3-{[(2-methoxypyridin-4-yl)carbonyl]amino}-1H-pyrazol-5-yl)cyclopentyl propylcarbamate], the Ki at GSK3β (H350L) was more than 95.3 nM; in assay [1], 1.35 nM.

Consider `CCCNC(=O)O[C@@H]1CC[C@H](c2cc(NC(=O)Cc3cnc(C)s3)n[nH]2)C1` [Example 185, (1R,3S)-3-(3-{[(2-methyl-1,3-thiazol-5-yl)acetyl]amino}-1H-pyrazol-5-yl)cyclopentyl propylcarbamate], for which the inhibition constant (Ki) at GSK3β (H350L) was 13 nM; in assay [1], 0.71 nM.

`CCCNC(=O)O[C@H]1CC[C@@H](c2cc(NC(=O)Cc3ccc(OC)cn3)n[nH]2)C1` [Example 186, (1S,3R)-3-(3-{[(5-methoxypyridin-2-yl)acetyl]amino}-1H-pyrazol-5-yl)cyclopentyl propylcarbamate]: the inhibitory constant (Ki) worked out at 9.64 nM on GSK3β (H350L) and 1.03 nM in assay [1].

For the compound `CCCNC(=O)O[C@@H]1CC[C@H](c2cc(NC(=O)Cc3ccc(OC)nc3)n[nH]2)C1` [Example 188, (1R,3S)-3-(3-{[(6-methoxypyridin-3-yl)acetyl]amino}-1H-pyrazol-5-yl)cyclopentyl propylcarbamate], the results for the Ki (at GSK3β (H350L); in assay [1]) were 9.32 nM and 0.44 nM, respectively.

Regarding `CCCNC(=O)O[C@H]1CC[C@@H](c2cc(NC(=O)Cc3cnc(OC)s3)n[nH]2)C1` [Example 189, (1S,3R)-3-(3-{[(2-methoxy-1,3-thiazol-5-yl)acetyl]amino}-1H-pyrazol-5-yl)cyclopentyl propylcarbamate], the inhibitory constant (Ki) at GSK3β (H350L) turned out to be 11.4 nM; in assay [1] it was 0.38 nM.

Turning to `CCCNC(=O)O[C@@H]1CC[C@H](c2cc(NC(=O)Cc3cnc(OC)s3)n[nH]2)C1` [Example 190, (1R,3S)-3-(3-{[(2-methoxy-1,3-thiazol-5-yl)acetyl]amino}-1H-pyrazol-5-yl)cyclopentyl propylcarbamate], the figures for the inhibition constant Ki (on GSK3β (H350L); in assay [1]) were 26.1 nM and 0.81 nM, respectively.

Regarding `CCCNC(=O)O[C@H]1CC[C@@H](c2cc(Nc3ccc4c(n3)CC[C@@H]4N(C)C)n[nH]2)C1` [Example 192, (1S,3R)-3-(3-{[(5S)-5-(dimethylamino)-6,7-dihydro-5H-cyclopenta[b]pyridin-2-yl]amino}-1H-pyrazol-5-yl)cyclopentyl propylcarbamate], the Ki is more than 191 nM on GSK3β (H350L) and 0.7 nM in assay [1].

Turning to `CCCNC(=O)O[C@H]1CC[C@@H](c2cc(NC(=O)Cc3ccccc3OCCN)n[nH]2)C1` [Example 197, (1S,3R)-3-[3-({[2-(2-aminoethoxy)phenyl]acetyl}amino)-1H-pyrazol-5-yl]cyclopentyl propylcarbamate], the inhibition constant (Ki) on GSK3β (H350L) is more than 191 nM; in assay [1], 0.49 nM.

For `CCCNC(=O)O[C@H]1CC[C@@H](c2cc(NC(=O)Cc3ccc(OCCN)cc3)n[nH]2)C1` [Example 198, (1S,3R)-3-[3-({[4-(2-aminoethoxy)phenyl]acetyl}amino)-1H-pyrazol-5-yl]cyclopentyl propylcarbamate], the inhibitory constant (Ki) at GSK3β (H350L) was 52.1 nM; in assay [1], 0.28 nM.

`CCCNC(=O)O[C@H]1CC[C@@H](c2cc(NC(=O)Cc3ccccc3S(C)(=O)=O)n[nH]2)C1` [Example 203, (1S,3R)-3-[3-({[2-(methylsulfonyl)phenyl]-acetyl}amino)-1H-pyrazol-5-yl]cyclopentyl propylcarbamate]: the Ki amounted to 34.2 nM on GSK3β (H350L) and 0.29 nM in assay [1].
